Here are results for one compound from US4680311A, “Method for the treatment of systemic mycosis” (Taisho Pharmaceutical Co., Ltd., priority 1985, dated 1987).

Like-named read-outs stand apart in the source and are kept apart here.

Data set [1] concerns Candida albicans. The data set is classed as in vivo, Candida albicans TIMM 0239 in female SPF Crj:CD-1 (ICR) mice. The note with it: for Survival rate / Average viable counts recovered (per mouse): twice daily, 14 days; for Survival rate: control 0/5; for Average viable counts recovered (per mouse): kidneys, control 4.87 × 10^7. The method, then: (§1) Female SPF mice Crj:CD-1 (ICR) strain, 4 weeks of age, weighing 18 g±1 g, were used as test animals. One loopful organisms of Candida albicans TIMM 0239 grown on Sabouraud's glucose agar slants were inoculated into Sabouraud's glucose broth containing 0.5% yeast extract. Then cultures were grown aerobically at 37° C. for 18 hours. The organisms were harvested from the cultures, washed twice with sterilized physiological saline, and finally suspended in saline. A total number of organisms was counted in a Burker-Turk hemocytometer. Thus prepared cell suspension was adjusted to contain 10^6 cells/ml, 0.2 ml of which was then injected into the tail vein in each mouse. Infected mice were allocated randomly to different groups. Each group consisted of eight mice.
(§2) (S)-2-amino-5-hydroxy-4-oxopentanoicacid was dissolved in sterilized physiological saline. The mice in the treated groups received the solution of this compound in a dose of 50 mg per kg mouse body weight once daily via an intravenous, subcutaneous, intraperitoneal or oral route for 5 consecutive days, starting on the day of infection. The first treatment was given immediately after a challenge of Candida albicans. The untreated control animals were intravenously given the same volume of saline in place of the test compound solution. The animals were observed daily for 10 days postinfection.
The same experimental conditions as for Test Example 1 were employed, except that all groups of five animals were infected with 1.0×10^6 organisms and treated with either 25, 50 or 100 mg/kg of the test compound twice daily for 14 consecutive days. Duration of observation period was two weeks after infection.
The criteria to evaluate efficacy of the test compound include survival rate and viable counts of Candida albicans recovered from the kidneys of infected animals. Both kidneys were excised from all the animals at the end of the experimental period, homogenized and cultured on Sabouraud's glucose agar plates for assay of viable counts.

Data set [2] concerns pathogenic human tubercle bacilli. The note with it: A. Miyake, Chem. Pharm. Bull., 8, 1071 (1960); cited from earlier work.
A further data set can be described thus: Acute toxicity in mice. Type of data set: in vivo. The note with it: mouse, in vivo, mice. The text has this:
(§3) This finding leads the inventors to possible usefulness of this substance for the therapy of human cases of candidiasis and other systemic mycoses. This substance is an extremely specific antimycotic agent in that it quite differs in chemical structure from any existing antimycotic agents.

The test system of another data set is mice. Description: Acute toxicity in mice. Type of data set: in vivo.
Excerpt: as §3

Data set [3] deals with Candida albicans. Nature of the data set: protective and therapeutic efficacy in mice experimentally infected with Candida albicans. The data set is classed as in vivo. As to the method: as §1
as §2, with “postinfection. […]” for “postinfection.”

The subject of a further data set is fungi. The note with it: A. Miyake, Chem. Pharm. Bull., 8, 1071 (1960); cited from earlier work.
Data set [4] concerns Candida albicans TIMM 0239. Description: Test Example 1: survival of mice with systemic Candida albicans infection. The data set is classed as in vivo, Candida albicans TIMM 0239 in female SPF Crj:CD-1 (ICR) mice. The note with it: for Survival rate: 50 mg/kg once daily, 5 days, observed 10 days postinfection, control 0/8. The method, then:
as §1, §2

Consider `N[C@@H](CC(=O)CO)C(=O)O` [(S)-2-amino-5-hydroxy-4-oxopentanoicacid], for which the Survival rate in the data set with Candida albicans [1] (25 mg/kg oral) is 1/5; with Candida albicans [1] (50 mg/kg oral), 2/5; with Candida albicans [1] (100 mg/kg oral), 5/5; in data set [4] (intraperitoneal), 0/8; in data set [4] (intravenous), 4/8; in data set [4] (oral), 4/8. The Survival rate in data set [4] (subcutaneous) is 0/8. The “Average viable counts recovered (per mouse)” value in the data set on Candida albicans [1] (25 mg/kg oral) is 1.45 × 10^7 per mouse; in the data set on Candida albicans [1] (50 mg/kg oral), 1.41 × 10^6 per mouse; in the data set with Candida albicans [1] (100 mg/kg oral), 2.41 × 10^5 per mouse. Besides, in the data set with Candida albicans [1] (oral, 25, 50 or 100 mg/kg), the “correlation between therapeutic efficacy and oral dose” value is “close correlation”. Also, the “activity against pathogenic human tubercle bacilli” value in data set [2] was “highly active”. For the same compound, the results for the 50% lethal dose (LD50) in the data set “Acute toxicity in mice” (ip), in “Acute toxicity in mice” (po) and in the data set “Acute toxicity in mice” (sc) were no less than 5000 mg/kg, no less than 6000 mg/kg and no less than 5000 mg/kg, respectively. Also, in the data set with mice (acute toxicity, mice), the “toxicity compared with existing antimycotic drugs” value is reported as “lower than that of any existing antimycotic drugs”. For the same compound, in the data set on mice (mouse, in vivo), the “tolerability in experimental animals” value is “very high tolerability”. Also, the “protective and therapeutic efficacy” value in the data set on Candida albicans [3] was “significant protective and therapeutic efficacy”. Also, the “in vitro antimycotic activity” value in the data set on fungi was “does hardly exert an in vitro antimycotic activity”. Further, in data set [4] (especially by intravenous or oral route, murine systemic candidiasis), the therapeutic efficacy entry is “significant therapeutic efficacy”.
